The values below come from article PMC11855230, “Oligoethylene Phosphoramidate‐Based Kinase Inhibitor Prodrugs – Solubility, Enzyme Inhibition, and Hydrolysis” (Chemistry (Weinheim an Der Bergstrasse, Germany), 2025).

Converted amounts (≈) assume the structure as drawn. Marks after values point to notes of the source that are not given here.

The first data set deals with T1, ROS proto‐oncogene 1 (ROS1) (Homo sapiens, UniProt P08922).
T1 construct: purchased biomol
T1 sequence (P08922 28-2347): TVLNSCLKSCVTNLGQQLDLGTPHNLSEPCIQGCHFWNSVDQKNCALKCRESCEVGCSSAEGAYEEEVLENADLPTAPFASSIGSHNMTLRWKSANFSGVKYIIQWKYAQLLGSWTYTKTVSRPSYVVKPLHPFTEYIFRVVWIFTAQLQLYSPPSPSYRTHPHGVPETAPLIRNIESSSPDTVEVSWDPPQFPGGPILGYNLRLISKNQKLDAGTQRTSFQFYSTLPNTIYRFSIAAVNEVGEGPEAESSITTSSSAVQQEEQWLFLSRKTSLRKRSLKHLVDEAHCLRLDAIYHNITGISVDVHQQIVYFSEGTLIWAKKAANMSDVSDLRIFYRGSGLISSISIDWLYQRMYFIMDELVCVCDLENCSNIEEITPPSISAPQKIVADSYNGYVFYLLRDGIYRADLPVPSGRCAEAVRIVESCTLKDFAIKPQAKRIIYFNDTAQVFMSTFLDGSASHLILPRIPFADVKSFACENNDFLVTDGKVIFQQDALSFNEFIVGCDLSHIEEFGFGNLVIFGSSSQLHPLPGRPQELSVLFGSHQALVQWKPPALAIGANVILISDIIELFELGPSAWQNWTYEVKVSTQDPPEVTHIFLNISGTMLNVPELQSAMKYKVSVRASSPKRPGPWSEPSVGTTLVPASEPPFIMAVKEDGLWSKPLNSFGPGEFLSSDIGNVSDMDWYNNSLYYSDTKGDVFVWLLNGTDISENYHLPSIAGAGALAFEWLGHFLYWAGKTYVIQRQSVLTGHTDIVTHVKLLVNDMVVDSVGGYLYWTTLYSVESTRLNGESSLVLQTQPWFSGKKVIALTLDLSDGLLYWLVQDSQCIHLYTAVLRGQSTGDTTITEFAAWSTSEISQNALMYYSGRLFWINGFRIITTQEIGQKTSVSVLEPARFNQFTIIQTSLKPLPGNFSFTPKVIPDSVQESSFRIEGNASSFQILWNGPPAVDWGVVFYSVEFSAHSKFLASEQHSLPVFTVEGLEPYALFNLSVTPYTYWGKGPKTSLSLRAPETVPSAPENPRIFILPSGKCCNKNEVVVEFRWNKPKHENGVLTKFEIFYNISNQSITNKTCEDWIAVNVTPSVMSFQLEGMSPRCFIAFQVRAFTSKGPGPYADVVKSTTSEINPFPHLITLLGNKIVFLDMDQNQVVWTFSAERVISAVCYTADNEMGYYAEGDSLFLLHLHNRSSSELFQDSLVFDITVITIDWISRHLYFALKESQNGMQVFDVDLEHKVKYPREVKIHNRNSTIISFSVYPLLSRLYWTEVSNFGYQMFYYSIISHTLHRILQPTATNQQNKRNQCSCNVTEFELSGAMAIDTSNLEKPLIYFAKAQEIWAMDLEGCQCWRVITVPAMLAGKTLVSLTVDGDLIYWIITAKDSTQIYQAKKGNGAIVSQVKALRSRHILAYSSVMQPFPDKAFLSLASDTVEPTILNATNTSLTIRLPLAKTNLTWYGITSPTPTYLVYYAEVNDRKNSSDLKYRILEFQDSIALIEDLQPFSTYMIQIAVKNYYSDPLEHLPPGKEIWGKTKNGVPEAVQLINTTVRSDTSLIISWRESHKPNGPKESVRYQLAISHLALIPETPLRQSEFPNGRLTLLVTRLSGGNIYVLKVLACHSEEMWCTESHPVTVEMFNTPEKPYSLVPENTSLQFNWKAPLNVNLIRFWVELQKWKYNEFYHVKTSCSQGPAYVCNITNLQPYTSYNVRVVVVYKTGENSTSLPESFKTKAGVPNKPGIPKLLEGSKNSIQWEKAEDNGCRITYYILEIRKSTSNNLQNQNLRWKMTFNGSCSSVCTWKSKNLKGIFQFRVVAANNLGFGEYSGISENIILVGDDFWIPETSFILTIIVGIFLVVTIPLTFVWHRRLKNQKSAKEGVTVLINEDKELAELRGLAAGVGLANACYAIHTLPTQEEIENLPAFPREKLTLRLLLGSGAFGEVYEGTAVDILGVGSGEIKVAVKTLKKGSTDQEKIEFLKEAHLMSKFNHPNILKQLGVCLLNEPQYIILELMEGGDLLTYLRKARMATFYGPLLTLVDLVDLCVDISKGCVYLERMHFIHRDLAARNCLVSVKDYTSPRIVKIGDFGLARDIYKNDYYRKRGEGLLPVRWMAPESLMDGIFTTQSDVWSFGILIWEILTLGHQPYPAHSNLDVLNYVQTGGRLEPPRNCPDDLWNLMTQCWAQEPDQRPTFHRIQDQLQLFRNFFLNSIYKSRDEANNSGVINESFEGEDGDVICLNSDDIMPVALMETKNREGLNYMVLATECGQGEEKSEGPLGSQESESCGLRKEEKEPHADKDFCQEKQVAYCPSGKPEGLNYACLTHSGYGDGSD
The data set is described as follows: ROS1 cell free enzyme (kinase) inhibition assay, luminescence. The conditions noted are these: 1 % DMSO, duplicates. Format: biochemical. The protocol:
Apart from solubility and self‐assembly, we investigate the inhibitory potential against the respectively targeted receptors.
Enzyme Binding Studies (ROS1):[21] ROS1 assays are performed with the following substances: Cer‐OEG2 , Cer‐OEG3 , Cer‐OEG8 , Cri‐OEG2 , Cri‐OEG3 and Cri‐OEG8 . The instructions are followed with some specifications: DTT (10 μL of 1 M DTT to 1 mL buffer) is added to the buffer solution and the assay is performed with 1 % DMSO in the final reaction volume. Serial dilutions of inhibitor (5 μL) are mixed with 20 μL enzyme (5 ng/μL), 5 μL of IGF‐1Rtide (1 mg/mL) and 1 μL ATP solution (500 μM) in a 96‐well plate. The blank contains no enzyme and no inhibitor. The positive control contains enzyme but no inhibitor. The receptor inhibitory rate is calculated from the luminescence as IC50. […] Luminescence is recorded on Promega GloMax Navigator Microplate Luminometer. Samples are prepared in duplicates.
What is called IC50 is the concentration that inhibits the measured activity by half. Compound `COCCOCCOCCOP(=O)(OCCOCCOCCOC)N1CCC(c2cc(OC(C)C)c(Nc3ncc(Cl)c(Nc4ccccc4S(=O)(=O)C(C)C)n3)cc2C)CC1` [Cer‐OEG3] showed a 50% inhibitory concentration (IC50) of 45 nM.
As to `COCCOCCOP(=O)(OCCOCCOC)N1CCC(n2cc(-c3cnc(N)c(O[C@H](C)c4c(Cl)ccc(F)c4Cl)c3)cn2)CC1` [Cri‐OEG2], the half-inhibitory concentration (IC50) stood at 50 nM. This IC50 and that of the compound before are within 1.5-fold of each other.
The compound `COCCOCCOCCOP(=O)(OCCOCCOCCOC)N1CCC(n2cc(-c3cnc(N)c(O[C@H](C)c4c(Cl)ccc(F)c4Cl)c3)cn2)CC1` [Cri‐OEG3] registered an IC50 of 45 nM.
`COCCOCCOCCOCCOCCOCCOCCOCCOP(=O)(OCCOCCOCCOCCOCCOCCOCCOCCOC)N1CCC(n2cc(-c3cnc(N)c(O[C@H](C)c4c(Cl)ccc(F)c4Cl)c3)cn2)CC1` [Cri‐OEG8] showed an IC50 of 140 nM.

The subject of another data set is HeLa cells. The data set is described as follows: Cell uptake in HeLa cells by confocal laser scanning microscopy (CLSM). Format: cell-based. The conditions noted are these: 25 μM, 23 h, excitation 405 nm. The protocol:
Altogether an OEG chain length of n=4 seems to be favorable for producing prodrugs with improved solubility from kinase inhibitors. […] Here we therefore concentrate on Rib‐OEG4 . […] The drug and its conjugate are exited at 405 nm, leading to weak fluorescence of the drugs.
Uptake is followed by Confocal for 23 h using Leica TCS SP8 Lightning confocal microscope with an OnkoLab incubator chamber with a constant temperature of 37 °C and a 5 % CO2 atmosphere at 95 % humidity (gas flow: 0.1 L/min). Drug and drug‐OEG conjugate is excited at 405 nm.
As for `CN(C)C(=O)c1cc2cnc(Nc3ccc(N4CCNCC4)cn3)nc2n1C1CCCC1` [Ribociclib, reference compound], the “uptake in HeLa cells” value was “taken up by the cells”.

Tested on in another data set: not listed separately
In words: Solubility limit in water (kinetic solubility) by UV/Vis optical density at 600 nm. Format: physicochemical. The settings on record: kinetic from dmso stock, absorption at 600 nm, read-out: c sol (water), solubility limit in water. The source says: With all purified compounds in hand, we start to analyze the different properties of the conjugates and discuss the influence of the OEG‐chain lengths. We determine the solubility in water with UV/Vis spectroscopy by measuring the optical density at 600 nm. The absorption (A) is plotted against varying concentration (c) of the drug conjugates (see Figure S1). In the range, in which the drug and their conjugates are still soluble, A can be fitted linearly. When the solubility limit is reached, the drug crashes out of solution leading to scattering and reduced transmission manifesting a threshold, upon which the increase in absorption is fitted with a second line of higher slope. The intersection between the two linear fits gives the critical concentration for the kinetic solubility c sol. Detailed solubility plots can be found in the supporting information (see Figure S1). In our previous study with n=4, the solubility of all three kinase inhibitor prodrugs in water is improved over the native drug. However, the extent of improvement varies between the different kinase inhibitor prodrugs. For a better overview, we have included the performance of our previous study (see Figure 2).[21] […] We observe an improvement of solubility upon conjugation with all of our different OEG‐phosphates.
UV‐Vis Spectroscopy: Changes in solubility are measured with a Lambda 365 spectrometer by PerkinElmer supplied with UV WinLab software. Samples are prepared in water and placed in a 1 cm quartz cuvette.
One may read the solubility as how much of the substance goes into solution per volume. For the compound `COCCOCCOCCOP(=O)(OCCOCCOCCOC)N1CCC(n2cc(-c3cnc(N)c(O[C@H](C)c4c(Cl)ccc(F)c4Cl)c3)cn2)CC1` [Cri‐OEG3], the solubility is 19100 µM (≈ 15700 µg/mL).
For the compound `COCCOCCOCCOCCOCCOCCOCCOCCOP(=O)(OCCOCCOCCOCCOCCOCCOCCOCCOC)N1CCC(n2cc(-c3cnc(N)c(O[C@H](C)c4c(Cl)ccc(F)c4Cl)c3)cn2)CC1` [Cri‐OEG8], the solubility is ≤ 4620 µM.
Turning to `CN(C)C(=O)c1cc2cnc(Nc3ccc(N4CCNCC4)cn3)nc2n1C1CCCC1` [Ribociclib, reference compound], the solubility is 490 µM (≈ 213 µg/mL).

Tested on in a further data set: not listed separately
In words: Dynamic light scattering (DLS) of drug‐conjugates in water. Format: physicochemical. The settings on record: DLS in water, at the concentration given per compound (Figures S2–S5). The protocol: To study, whether self‐assembly into micelles might have an effect on the solubility limit of the prodrugs, we perform dynamic light scattering (DLS) of the drug‐conjugates in water. […] Micelles below 6 nm (Cer‐OEG8 , Cri‐OEG3 , Cri‐OEG8 , Pal‐OEG3 , Rib‐OEG2 , and Rib‐OEG3 ) are potentially affected by renal clearance.
Dynamic Light Scattering (DLS): Possible self‐assemblies are investigated with DLS Nano‐Zetasizer (Malvern Instruments) at 25 °C with a scattering angle of 173° at λ=633 nm.
`COCCOCCOCCOP(=O)(OCCOCCOCCOC)N1CCC(c2cc(OC(C)C)c(Nc3ncc(Cl)c(Nc4ccccc4S(=O)(=O)C(C)C)n3)cc2C)CC1` [Cer‐OEG3] had a PDI of 0.05 and a hydrodynamic diameter of 279 nm.
For `COCCOCCOP(=O)(OCCOCCOC)N1CCC(n2cc(-c3cnc(N)c(O[C@H](C)c4c(Cl)ccc(F)c4Cl)c3)cn2)CC1` [Cri‐OEG2] the same measures were 0.03 and 151 nm.
Consider `COCCOCCOCCOP(=O)(OCCOCCOCCOC)N1CCC(n2cc(-c3cnc(N)c(O[C@H](C)c4c(Cl)ccc(F)c4Cl)c3)cn2)CC1` [Cri‐OEG3], for which the PDI worked out at 0.02 and the hydrodynamic diameter amounted to 3.7 nm.
For `COCCOCCOCCOCCOCCOCCOCCOCCOP(=O)(OCCOCCOCCOCCOCCOCCOCCOCCOC)N1CCC(n2cc(-c3cnc(N)c(O[C@H](C)c4c(Cl)ccc(F)c4Cl)c3)cn2)CC1` [Cri‐OEG8], the PDI is 0.36 and the hydrodynamic diameter is 3.3 nm.

Tested on in the next data set: not given
Assay: not given
Also on record: method as in PMID 38923708. The conditions noted are these: kinetic solubility, values marked a from previous publication ref 21, listed as Ceritninib; cited from earlier work.
With `Cc1cc(Nc2ncc(Cl)c(Nc3ccccc3S(=O)(=O)C(C)C)n2)c(OC(C)C)cc1C1CCNCC1` [Ceritinib], the “c sol (water), solubility limit in water” value was 0.93 mM.

The data set is the same for the next values; noted with them: kinetic solubility, values marked a from previous publication ref 21; cited from earlier work.
On to `Cc1cc(Nc2ncc(Cl)c(Nc3ccccc3S(=O)(=O)C(C)C)n2)c(OC(C)C)cc1C1CCNCC1` [Ceritinib], for which the “c sol (water), solubility limit in water” value is ≤0.93^a mM.
Take `C[C@@H](Oc1cc(-c2cnn(C3CCNCC3)c2)cnc1N)c1c(Cl)ccc(F)c1Cl` [Crizotinib]: the “c sol (water), solubility limit in water” value is given as ≤0.77 ^a mM.
On to `CC(=O)c1c(C)c2cnc(Nc3ccc(N4CCNCC4)cn3)nc2n(C2CCCC2)c1=O` [Palbociclib], for which the “c sol (water), solubility limit in water” value was ≤0.02 ^a mM.
